Source: paper PMC11472320, “Computationally Driven Discovery of a BCR-ABL1 Kinase Inhibitor with Activity in Multidrug-Resistant Chronic Myeloid Leukemia” (Journal of Medicinal Chemistry, 2024)
Where “and” joins values, the source holds several entries; their conditions need not be identical. Identical values can stand only once. Like-named read-outs stand apart in the source and are kept apart here.

How the values were obtained:
[1] = Abraham ANMR value by NMR (CDCl3 vs DMSO-d6); type: physicochemical
Excerpt: Previously, intramolecular N–H–F hydrogen bonds (HBs) have been proposed as a strategy to reduce P-gp-mediated efflux and improve passive permeability, as highlighted in the discovery of the brain-penetrant EGFR inhibitor, AZD-3759 (Figure 2A).[37]−[40] […] Consistent with this work, we conducted an NMR study of the EGFR inhibitor 7a and the BCR-ABL1 inhibitor 8a in deuterated chloroform (CDCl3) and in the more polar, HB-accepting dimethyl sulfoxide (DMSO-d6). […] This finding is further supported by the lack of ^1JNH-F coupling (≤1 Hz) in 7a and 8a, as contrasted with bona fide intramolecular HBs to fluorine, which typically have ^1JNH-F coupling constants >10 Hz as exemplified by 9 with its ^1JNH-F of 19.1 Hz.[41],[43]

MDCKII-MDR1 cells [2] = conditions: cited from earlier work
[3] = cited from earlier work
[4] = cited from earlier work; remark: listed apart in the source
mutant BCR-ABL1 kinases = assay: Biochemical kinase inhibition, summary statements; design: species or system human; conditions: read-out: IC50 against mutant BCR-ABL1 kinases
Ph+ CML = assay: Activity in Ph+ CML (Figure 2B annotation); type: cell-based; conditions: annotation in Figure 2B
Lipophilicity logD7.4 = type: physicochemical; conditions: pH 7.4
Aqueous solubility = type: physicochemical; conditions: pH 7.4
[5] = Metabolic stability in hepatocytes; type: in vitro ADME, human; conditions: for hepatocyte CLint: both sexes, read-out: HEPClint (H); for hepatocyte CLint / t1/2 (H): human hepatocytes
Excerpt: Metabolic stability in hepatocytes
Table S4. Hepatocyte details used in the hepatocyte stability assay.
Human Hepatocytes, Mixed-Gender BiolVT (Cat No. X008001)
Mouse Hepatocytes, Male-Gender BiolVT (Cat No. M005052)

[6] = Plasma protein binding by equilibrium dialysis; type: in vitro ADME; conditions: human plasma
in vitro [7] = conditions: dog, MDCK-MDR1
MDR1 (P-gp) = assay: in vitro; conditions: dog, MDCK-MDR1
MDR1 = assay: in vitro; conditions: dog, MDCK-MDR1
in vitro [8] = conditions: human, Caco-2
Caco-2 cells = assay: Caco-2 permeability; conditions: for Recovery% (BL-AP) / efflux ratio: Table S9
MDCKII-MDR1 cells [9] = assay: MDCKII-MDR1 permeability; conditions: for Recovery% (BL-AP): Table S7; for MDCKII-MDR1 Efflux Ratio: n = 2
BCR-ABL1 wt = BCR-ABL1 wt (Homo sapiens, UniProt P00519); assay: KinaseProfiler enzymatic radiometric kinase assay; conditions: read-out: Kinase IC50 BCR-ABL1 wt; [ATP] = 10 µM, n = 2
cSRC wt = cSRC wt (Homo sapiens, UniProt P12931); assay: KinaseProfiler enzymatic radiometric kinase assay
Sequence of cSRC wt (P12931 whole entry): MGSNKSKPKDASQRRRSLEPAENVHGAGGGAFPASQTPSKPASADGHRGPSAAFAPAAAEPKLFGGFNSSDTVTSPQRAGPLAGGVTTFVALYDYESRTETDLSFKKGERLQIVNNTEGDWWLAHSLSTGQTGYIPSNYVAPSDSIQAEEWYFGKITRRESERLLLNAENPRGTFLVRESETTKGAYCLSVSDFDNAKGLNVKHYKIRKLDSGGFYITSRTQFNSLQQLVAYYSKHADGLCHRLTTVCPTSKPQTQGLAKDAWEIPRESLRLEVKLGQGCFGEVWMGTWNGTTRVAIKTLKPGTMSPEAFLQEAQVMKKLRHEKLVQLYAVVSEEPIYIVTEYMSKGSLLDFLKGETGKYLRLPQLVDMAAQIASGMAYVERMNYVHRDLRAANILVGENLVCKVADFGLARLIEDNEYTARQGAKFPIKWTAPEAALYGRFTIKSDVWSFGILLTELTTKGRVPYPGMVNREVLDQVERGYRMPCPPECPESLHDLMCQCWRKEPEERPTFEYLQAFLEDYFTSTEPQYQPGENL

CDC2L5 = molecular target: T1, CDC2L5 (Homo sapiens, UniProt Q14004); assay: KINOMEScan; type: binding; conditions: read-out: Percent Control
T1 construct: purchased Eurofins DiscoverX (KINOMEscan)

PFCDPK1(P.falciparum) = molecular target: T2, PFCDPK1(P.falciparum) (Plasmodium falciparum, UniProt P62344); assay: KINOMEScan; type: binding; conditions: read-out: Percent Control
T2 construct: purchased Eurofins DiscoverX (KINOMEscan)
T2 sequence (P62344 whole entry): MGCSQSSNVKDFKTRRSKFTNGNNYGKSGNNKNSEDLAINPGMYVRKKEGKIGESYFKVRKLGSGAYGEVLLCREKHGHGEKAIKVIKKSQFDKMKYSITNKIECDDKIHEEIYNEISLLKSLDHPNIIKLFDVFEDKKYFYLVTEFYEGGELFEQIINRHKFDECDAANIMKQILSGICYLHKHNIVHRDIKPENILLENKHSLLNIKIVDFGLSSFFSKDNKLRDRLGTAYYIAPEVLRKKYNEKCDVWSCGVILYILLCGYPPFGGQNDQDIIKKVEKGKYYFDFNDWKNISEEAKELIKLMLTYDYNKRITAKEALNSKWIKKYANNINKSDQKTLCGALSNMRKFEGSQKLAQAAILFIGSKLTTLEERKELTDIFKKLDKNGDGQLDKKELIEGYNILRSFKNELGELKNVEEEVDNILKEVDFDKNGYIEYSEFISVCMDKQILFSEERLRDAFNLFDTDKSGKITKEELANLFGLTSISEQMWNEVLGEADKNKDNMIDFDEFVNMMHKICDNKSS

PFPK5(P.falciparum) = molecular target: T3, PFPK5(P.falciparum) (Plasmodium falciparum, UniProt P61075); assay: KINOMEScan; type: binding; conditions: read-out: Percent Control
T3 construct: purchased Eurofins DiscoverX (KINOMEscan)
T3 sequence (P61075 whole entry): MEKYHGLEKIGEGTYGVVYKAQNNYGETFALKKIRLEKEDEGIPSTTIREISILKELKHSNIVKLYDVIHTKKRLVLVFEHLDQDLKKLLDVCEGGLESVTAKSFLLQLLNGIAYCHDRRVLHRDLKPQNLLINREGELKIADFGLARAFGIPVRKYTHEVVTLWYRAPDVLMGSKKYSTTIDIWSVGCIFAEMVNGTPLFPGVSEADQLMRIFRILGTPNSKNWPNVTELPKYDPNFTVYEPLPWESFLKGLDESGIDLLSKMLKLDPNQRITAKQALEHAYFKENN

PKNB(M.tuberculosis) = molecular target: T4, PKNB(M.tuberculosis) (Mycobacterium tuberculosis, UniProt P9WI81); assay: KINOMEScan; type: binding; conditions: read-out: Percent Control
T4 construct: purchased Eurofins DiscoverX (KINOMEscan)

PRKCD = molecular target: T5, PRKCD (Homo sapiens, UniProt Q05655); assay: KINOMEScan; type: binding; conditions: read-out: Percent Control
T5 construct: purchased Eurofins DiscoverX (KINOMEscan)

PRKCE = molecular target: T6, PRKCE (Homo sapiens, UniProt Q02156); assay: KINOMEScan; type: binding; conditions: read-out: Percent Control
T6 construct: purchased Eurofins DiscoverX (KINOMEscan)

PRKCH = molecular target: T7, PRKCH (Homo sapiens, UniProt P24723); assay: KINOMEScan; type: binding; conditions: read-out: Percent Control
T7 construct: purchased Eurofins DiscoverX (KINOMEscan)
T7 sequence (P24723 whole entry): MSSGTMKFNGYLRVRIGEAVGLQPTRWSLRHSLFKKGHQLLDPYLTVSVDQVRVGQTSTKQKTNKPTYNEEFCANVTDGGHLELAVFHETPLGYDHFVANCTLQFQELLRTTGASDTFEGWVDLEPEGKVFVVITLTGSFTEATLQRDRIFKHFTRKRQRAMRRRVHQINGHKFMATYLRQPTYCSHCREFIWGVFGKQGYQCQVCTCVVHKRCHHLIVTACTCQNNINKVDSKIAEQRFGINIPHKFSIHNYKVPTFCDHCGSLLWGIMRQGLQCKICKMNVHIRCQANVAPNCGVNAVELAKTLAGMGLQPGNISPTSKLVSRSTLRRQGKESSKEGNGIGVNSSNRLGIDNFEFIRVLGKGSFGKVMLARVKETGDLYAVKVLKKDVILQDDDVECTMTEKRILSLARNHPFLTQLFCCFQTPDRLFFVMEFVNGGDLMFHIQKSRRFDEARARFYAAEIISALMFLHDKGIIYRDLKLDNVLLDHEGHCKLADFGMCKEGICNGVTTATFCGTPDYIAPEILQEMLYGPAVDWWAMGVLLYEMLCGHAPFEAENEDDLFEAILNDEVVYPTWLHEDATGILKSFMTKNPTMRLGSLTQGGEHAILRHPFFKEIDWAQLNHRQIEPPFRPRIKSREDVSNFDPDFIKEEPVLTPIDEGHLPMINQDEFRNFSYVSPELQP

PRKCI = molecular target: T8, PRKCI (Homo sapiens, UniProt P41743); assay: KINOMEScan; type: binding; conditions: read-out: Percent Control
T8 construct: purchased Eurofins DiscoverX (KINOMEscan)
T8 sequence (P41743 whole entry): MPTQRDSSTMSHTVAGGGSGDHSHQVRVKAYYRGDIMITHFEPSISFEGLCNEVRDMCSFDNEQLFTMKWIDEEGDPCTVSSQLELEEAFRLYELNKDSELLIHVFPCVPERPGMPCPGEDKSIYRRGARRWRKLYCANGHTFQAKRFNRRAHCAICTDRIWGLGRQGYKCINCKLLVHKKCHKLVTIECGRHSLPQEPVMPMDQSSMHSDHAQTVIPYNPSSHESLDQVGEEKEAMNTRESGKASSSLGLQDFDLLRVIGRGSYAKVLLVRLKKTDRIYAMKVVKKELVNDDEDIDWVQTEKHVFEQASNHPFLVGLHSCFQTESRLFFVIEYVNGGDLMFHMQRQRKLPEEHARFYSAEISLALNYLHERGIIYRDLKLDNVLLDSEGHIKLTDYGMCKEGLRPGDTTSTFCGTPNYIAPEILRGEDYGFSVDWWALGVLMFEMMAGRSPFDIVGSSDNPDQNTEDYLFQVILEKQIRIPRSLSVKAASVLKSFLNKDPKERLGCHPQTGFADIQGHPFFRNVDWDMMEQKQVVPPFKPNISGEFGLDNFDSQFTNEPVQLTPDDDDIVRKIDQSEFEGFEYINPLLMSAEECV

PRKCQ = molecular target: T9, PRKCQ (Homo sapiens, UniProt Q04759); assay: KINOMEScan; type: binding; conditions: read-out: Percent Control
T9 construct: purchased Eurofins DiscoverX (KINOMEscan)

PRKD1 = molecular target: T10, PRKD1 (Homo sapiens, UniProt Q15139); assay: KINOMEScan; type: binding; conditions: read-out: Percent Control
T10 construct: purchased Eurofins DiscoverX (KINOMEscan)

PRKD3 = molecular target: T11, PRKD3 (Homo sapiens, UniProt O94806); assay: KINOMEScan; type: binding; conditions: read-out: Percent Control
T11 construct: purchased Eurofins DiscoverX (KINOMEscan)
T11 sequence (O94806 whole entry): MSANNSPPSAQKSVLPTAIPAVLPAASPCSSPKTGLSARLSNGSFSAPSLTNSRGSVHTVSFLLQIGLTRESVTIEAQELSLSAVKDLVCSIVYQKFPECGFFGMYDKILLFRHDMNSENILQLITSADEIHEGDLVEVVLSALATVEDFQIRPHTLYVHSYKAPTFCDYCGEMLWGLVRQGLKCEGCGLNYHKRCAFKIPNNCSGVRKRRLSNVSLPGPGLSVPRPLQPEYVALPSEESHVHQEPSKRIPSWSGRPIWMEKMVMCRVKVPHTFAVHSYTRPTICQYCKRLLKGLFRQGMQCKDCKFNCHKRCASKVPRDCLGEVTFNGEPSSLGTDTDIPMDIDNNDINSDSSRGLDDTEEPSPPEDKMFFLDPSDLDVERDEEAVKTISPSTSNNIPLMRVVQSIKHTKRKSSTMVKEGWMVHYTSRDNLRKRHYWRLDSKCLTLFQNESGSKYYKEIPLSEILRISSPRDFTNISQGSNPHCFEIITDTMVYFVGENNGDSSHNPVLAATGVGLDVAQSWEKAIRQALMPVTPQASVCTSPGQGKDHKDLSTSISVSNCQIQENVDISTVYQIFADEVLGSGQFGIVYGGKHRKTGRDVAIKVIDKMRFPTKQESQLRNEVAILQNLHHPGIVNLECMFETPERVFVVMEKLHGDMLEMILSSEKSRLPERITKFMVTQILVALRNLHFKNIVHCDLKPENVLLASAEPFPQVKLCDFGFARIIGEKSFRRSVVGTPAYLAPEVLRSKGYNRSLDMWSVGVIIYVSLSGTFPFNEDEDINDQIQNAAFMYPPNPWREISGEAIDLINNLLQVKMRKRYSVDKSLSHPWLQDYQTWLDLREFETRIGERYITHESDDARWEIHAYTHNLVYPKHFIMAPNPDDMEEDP

PRP4 = molecular target: T12, PRP4 (Homo sapiens, UniProt Q13523); assay: KINOMEScan; type: binding; conditions: read-out: Percent Control
T12 construct: purchased Eurofins DiscoverX
T12 sequence (Q13523 whole entry): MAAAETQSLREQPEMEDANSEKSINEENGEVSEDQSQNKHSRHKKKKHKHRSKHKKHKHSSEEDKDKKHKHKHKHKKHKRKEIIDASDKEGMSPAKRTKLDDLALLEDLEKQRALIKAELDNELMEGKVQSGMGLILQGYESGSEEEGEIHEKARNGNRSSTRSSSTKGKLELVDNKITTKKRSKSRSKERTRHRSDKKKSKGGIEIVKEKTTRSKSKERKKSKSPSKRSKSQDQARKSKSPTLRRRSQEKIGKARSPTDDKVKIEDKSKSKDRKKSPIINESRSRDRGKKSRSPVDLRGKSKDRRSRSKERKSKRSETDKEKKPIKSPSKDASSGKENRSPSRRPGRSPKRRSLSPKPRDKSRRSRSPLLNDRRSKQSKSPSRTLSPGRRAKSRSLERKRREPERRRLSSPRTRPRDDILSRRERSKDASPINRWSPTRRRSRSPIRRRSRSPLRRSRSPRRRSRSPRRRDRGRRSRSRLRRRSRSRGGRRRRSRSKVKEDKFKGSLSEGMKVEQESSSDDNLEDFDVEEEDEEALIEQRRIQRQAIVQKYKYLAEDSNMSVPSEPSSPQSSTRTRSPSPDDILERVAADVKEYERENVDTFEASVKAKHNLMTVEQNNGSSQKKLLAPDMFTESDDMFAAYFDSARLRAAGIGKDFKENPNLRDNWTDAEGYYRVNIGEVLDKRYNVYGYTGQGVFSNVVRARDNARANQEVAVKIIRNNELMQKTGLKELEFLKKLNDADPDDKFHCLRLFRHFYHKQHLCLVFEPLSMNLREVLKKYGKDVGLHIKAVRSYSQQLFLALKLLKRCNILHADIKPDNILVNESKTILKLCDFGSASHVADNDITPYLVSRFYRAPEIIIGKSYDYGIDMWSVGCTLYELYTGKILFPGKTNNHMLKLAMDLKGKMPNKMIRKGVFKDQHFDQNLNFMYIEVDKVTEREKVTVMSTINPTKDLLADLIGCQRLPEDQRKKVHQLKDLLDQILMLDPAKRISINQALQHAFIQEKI

[10] = pH 7.4; cited from earlier work
[11] = pH 7.4; cited from earlier work; remark: listed apart in the source
[12] = cited from earlier work; remark: listed apart in the source
[13] = design: method as in earlier work; conditions: human plasma; cited from earlier work
P-glycoprotein (P-gp) = conditions: Figure 1A; cited from earlier work

In the case of `COc1cc2ncnc(Nc3cccc(Cl)c3F)c2cc1OCCON1CCN(C)CC1` [7a], the “Abraham ANMR Value (aniline N-H)” value [1] is listed as > 0.30 and 0.31, the P-gp efflux status (MDCKII-MDR1 cells [2]) is listed as “Not a P-gp Substrate” and the AMES [3] is listed as “Negative”. The Micronucleus [4] was “Negative”.
In the case of `COc1cc(Nc2c(C#N)cnc3cc(OCCON4CCN(C)CC4)c(OC)cc23)c(F)cc1Cl` [8a, 4-((4-Chloro-2-fluoro-5-methoxyphenyl)amino)-6-methoxy-7-(2-((4-methylpiperazin-1-yl)oxy)ethoxy)quinoline-3-carbonitrile], the IC50 (mutant BCR-ABL1 kinases) is reported as under 1 nM, the “Activity in Ph+ CML” value (Ph+ CML) is reported as “Moderate Activity” and the logD (Lipophilicity logD7.4) is reported as 3.4. The “Aq. Sol.” value (Aqueous solubility) was 43 µM, the “Remaining Percentages” value ([5]; 0.5 min) was 100.00% and the “Remaining Percentages” value ([5]; 15 min) was 69.28%. For the same compound, the “Remaining Percentages” value ([5]; 30 min) was 52.48%, the “Remaining Percentages” value ([5]; 60 min) was 29.45% and the “Remaining Percentages” value ([5]; 90 min) was 15.72%. The “Remaining Percentages” value ([5]; 120 min) was 9.48%, the hepatocyte CLint [5] was 40.5 µL/min/1e6 cells and the “t1/2 (H)” value [5] was 34.2 min. The fraction unbound ([6]; both sexes) was 0.0558, the recovery ([6]; both sexes) was 99.9% and the remaining at 6 h ([6]; both sexes, 6 h) was 92.7%. The “%Unbound” value [6] was 5.58%, the “Abraham ANMR Value (aniline N-H)” value [1] was > 0.30 and 0.40 and the recovery (in vitro [7]) was 79.8%. The Papp A→B (MDR1 (P-gp)) was 0.7 ×10⁻⁶ cm/s, the Papp B→A (MDR1 (P-gp)) was 19.3 ×10⁻⁶ cm/s and the Papp A→B (MDR1) was 0.73 ×10⁻⁶ cm/s. For the same compound, the efflux ratio (MDR1) was 26.4, the Papp A→B (in vitro [8]) was 1.94 ×10⁻⁶ cm/s and the Papp B→A (in vitro [8]) was 12.1 ×10⁻⁶ cm/s. The efflux ratio (in vitro [8]) was 6.4, the recovery (in vitro [8]) was 61.2% and the “Recovery% (BL-AP)” value (Caco-2 cells) was 72.31%. For the same compound, the “efflux ratio” value (Caco-2 cells) was 6.22, the “Caco-2 Papp (a-b)” value (Caco-2 cells) was 1.9 ×10⁻⁶ cm/s and the “Caco-2 Papp (b-a)” value (Caco-2 cells) was 12.1 ×10⁻⁶ cm/s. For the same compound, the P-gp efflux status (MDCKII-MDR1 cells [9]) was “P-gp Substrate”, the “Recovery% (BL-AP)” value (MDCKII-MDR1 cells [9]) was 64.87% and the “MDCKII-MDR1 Efflux Ratio” value (MDCKII-MDR1 cells [9]) was 27.6. It also gave an IC50 (BCR-ABL1 wt) of 1 nM and an IC50 (cSRC wt) of 2 nM.
For `COc1cc2c(Nc3cccc(Cl)c3F)c(C#N)cnc2cc1OCCON1CCN(C)CC1` [11a, 4-((3-Chloro-2-fluorophenyl)amino)-6-methoxy-7-(2-((4-methylpiperazin-1-yl)oxy)ethoxy)quinoline-3-carbonitrile], the “Activity in Ph+ CML” value (Ph+ CML) was “Poor Activity”, the logD (Lipophilicity logD7.4) was 3.3 and the “Aq. Sol.” value (Aqueous solubility) was 14 µM. The “Remaining Percentages” value ([5]; 0.5 min) was 100.00%, the “Remaining Percentages” value ([5]; 15 min) was 82.49% and the “Remaining Percentages” value ([5]; 30 min) was 66.92%. For the same compound, the “Remaining Percentages” value ([5]; 60 min) was 45.06%, the “Remaining Percentages” value ([5]; 90 min) was 29.85% and the “Remaining Percentages” value ([5]; 120 min) was 18.60%. The hepatocyte CLint [5] was 27.9 µL/min/1e6 cells, the “t1/2 (H)” value [5] was 49.7 min and the “Abraham ANMR Value (aniline N-H)” value [1] was 0.40. For the same compound, the recovery (in vitro [7]) was 71.6%, the Papp A→B (MDR1 (P-gp)) was 7.2 ×10⁻⁶ cm/s and the Papp B→A (MDR1 (P-gp)) was 29.6 ×10⁻⁶ cm/s. The Papp A→B (MDR1) was 7.16 ×10⁻⁶ cm/s, the Papp B→A (MDR1) was 29.6 ×10⁻⁶ cm/s and the efflux ratio (MDR1) was 4.15. For the same compound, the Papp A→B (in vitro [8]) was 3.66 ×10⁻⁶ cm/s, the Papp B→A (in vitro [8]) was 27.4 ×10⁻⁶ cm/s and the efflux ratio (in vitro [8]) was 7.4. For the same compound, the recovery (in vitro [8]) was 60.5%, the “Recovery% (BL-AP)” value (Caco-2 cells) was 80.51% and the “efflux ratio” value (Caco-2 cells) was 7.49. The “Caco-2 Papp (a-b)” value (Caco-2 cells) was 3.7 ×10⁻⁶ cm/s, the “Caco-2 Papp (b-a)” value (Caco-2 cells) was 27.4 ×10⁻⁶ cm/s and the P-gp efflux status (MDCKII-MDR1 cells [9]) was “Moderate P-gp Substrate”. For the same compound, the “Recovery% (BL-AP)” value (MDCKII-MDR1 cells [9]) was 85.59% and the “MDCKII-MDR1 Efflux Ratio” value (MDCKII-MDR1 cells [9]) was 4.1.
`COc1cc2c(Nc3ccc(Cl)c(OC)n3)c(C#N)cnc2cc1OCCON1CCN(C)CC1` [16a, 4-((5-Chloro-6-methoxypyridin-2-yl)amino)-6-methoxy-7-(2-((4-methylpiperazin-1-yl)oxy)ethoxy)quinoline-3-carbonitrile] showed a remaining binding at 1 µM (CDC2L5) of 100%, a remaining binding at 1 µM (PFCDPK1(P.falciparum)) of 18% and a remaining binding at 1 µM (PFPK5(P.falciparum)) of 100%. For the same compound, the remaining binding at 1 µM (PKNB(M.tuberculosis)) was 53%, the remaining binding at 1 µM (PRKCD) was 42% and the remaining binding at 1 µM (PRKCE) was 70%. It also gave a remaining binding at 1 µM (PRKCH) of 84%, a remaining binding at 1 µM (PRKCI) of 61% and a remaining binding at 1 µM (PRKCQ) of 30%. It also gave a remaining binding at 1 µM (PRKD1) of 78%, a remaining binding at 1 µM (PRKD3) of 58% and a remaining binding at 1 µM (PRP4) of 33%.
For `COc1cc(Nc2c(C#N)cnc3cc(OCCCN4CCN(C)CC4)c(OC)cc23)c(Cl)cc1Cl` [Bosutinib, bosutinib], the “Papp(a-b)” value (MDCKII-MDR1 cells [2]; Table S7) is given as 0.38 10-6 cm/s, the “Recovery% (AP-BL)” value (MDCKII-MDR1 cells [2]; Table S7) is given as 56.02% and the “Recovery% (BL-AP)” value (MDCKII-MDR1 cells [2]; Table S7) is given as 65.52%. The “MDCKII-MDR1 Papp (a-b)” value (MDCKII-MDR1 cells [2]; a-b) was 0.4 ×10⁻⁶ cm/s, the P-gp efflux status (MDCKII-MDR1 cells [2]) was “P-gp Substrate” and the logD7.4 [10] was 3.1. For the same compound, the “Aq. Sol.” value [11] was 14 µM, the “Remaining Percentages” value ([12]; 0.5 min) was 100.00% and the “Remaining Percentages” value ([12]; 15 min) was 73.99%. The “Remaining Percentages” value ([12]; 60 min) was 53.95%, the “Remaining Percentages” value ([12]; 90 min) was 34.15% and the “Remaining Percentages” value ([12]; 120 min) was 20.73%. For the same compound, the “%Recovery” value [13] was 94.01%, the “%Unbound” value [13] was 4.52% and the P-gp efflux status (P-glycoprotein (P-gp)) was “P-gp Substrate”.
